Data published in patent publication US9896441B2 (Lycera Corporation, priority 2014, dated 2018).
pEC50: −log10 of the molar value.

Assays:
[1] = molecular target: T1, Gal4-RORγ-LBD (Homo sapiens, UniProt P51449); assay: Gal4-RORγ Luciferase Reporter Assay in HEK-293T Cells; type: cell-based; conditions: HEK-293 cells; for Gal4-RORγ Assay Max Response: maximum response
T1 construct: expressed in transfected cells
T1 sequence (P51449 269-508 limits assumed): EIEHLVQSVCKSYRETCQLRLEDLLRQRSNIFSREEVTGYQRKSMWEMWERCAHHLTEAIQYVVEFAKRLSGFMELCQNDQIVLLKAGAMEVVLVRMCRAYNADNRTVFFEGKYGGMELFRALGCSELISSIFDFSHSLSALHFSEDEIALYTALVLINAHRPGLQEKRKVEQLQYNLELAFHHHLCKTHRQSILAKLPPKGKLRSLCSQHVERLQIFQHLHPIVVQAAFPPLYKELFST
Experimental: Assay procedures and results are described below.
In the following protocol, HEK-293 cells were transfected with a construct comprising the Gal4 DNA binding domain fused to the ligand binding domain of RORγ (Gal4-RORγ-LBD) in a pcDNA3.1neo plasmid, and also with a reporter construct comprising pGL4.31 Gal4-luciferase (Promega). Control cells were prepared similarly using empty pcDNA3.1neo and pGL4.31 vectors.
Trans-IT reagent (Mirus, 60 μL) at room temperature was added drop wise to OptiMEM (Invitrogen, 1.5 ml). This reagent mixture was mixed by inversion then incubated for 5 to 30 minutes at room temperature. It then was added to a solution of both expression vectors (5 μg each), mixed, and incubated at room temperature for about 20 minutes. HEK-293 cells were harvested from incubation flasks by removing the media, treating with TrypLE Express (Invitrogen), and incubating until the cells detached from the bottom of the flask (approximately 2-5 minutes). 10 Million cells were collected by centrifugation and re-suspended in 10 mL of Dulbecco's Modified Eagle Medium, High Glucose (DMEM, Invitrogen) containing 10% Fetal Bovine Serum and 100 IU each of penicillin and streptomycin. The re-suspended cells and the transfection mixture were added to a T75 flask, mixed and incubated overnight at 37° C. and 5% CO2.
The cells were harvested as described above, counted, and centrifuged to obtain the desired number of cells, then re-suspended in complete growth media at 0.75×10^6 cells/mL. The RORγ antagonist, ursolic acid, was added to the cells at a final concentration of […]. Cells were plated at 20 µL of cell suspension/well (10,000-15,000 cells/well) in white tissue culture treated 384 well plates. Test compounds were dissolved at 10 mM in DMSO then diluted into complete growth medium to 5× the final intended test concentration. These drug stock solutions, 5 µL/well were added to the tissue culture plate. The final DMSO concentration was 0.2%. The plates were briefly centrifuged then incubated overnight at 37° C. and 5% CO2. To conduct the assay, the tissue culture plates were allowed to equilibrate to room temperature and One-Glo luciferase reagent (Promega, 25 µL/well) was added. The plates were briefly centrifuged then incubated at room temperature for 10 minutes. The luciferase intensity was read on an Envision plate reader (Perkin Elmer). […] The luciferase signal in the absence of ursolic acid or test compound is defined at 100. The Max Response is the upper plateau in the signal as determined by line-fit using a 4-parameter logistic model in PRISM (GraphPad).

[2] = molecular target: T2, RORγ-LBD (Homo sapiens, UniProt P51449); assay: RORγ-Ligand Binding Domain (LBD) TR-FRET Assay; type: biochemical; conditions: for TR-FRET Assay Max Response: maximum response;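 on TR-FRET Assay Max Response: 665/615 nm signal ratio set to 100 without ursolic acid or test compound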
T2 construct: made in house; host or cells: SF9 cells (baculovirus); used as diluted lysate
T2 sequence (P51449 269-508 limits assumed): T1 sequence (P51449 269-508 limits assumed)
Method in brief: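 Compounds, diluted in DMSO and then in assay buffer (1% DMSO final), were combined with His-tagged RORγ-LBD lysate at roughly 3 nM final and a 200 nM biotinylated SRC1 LXXLL peptide. Ursolic acid was included at 2 μM final. Coactivator recruitment was detected by TR-FRET.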

[3] = luciferase reporter, with ursolic acid
[4] = ursolic acid present, luciferase readout
[5] = with 2 μM ursolic acid (RORγ antagonist), highest test concentration 10 μM
[6] = luciferase reporter, in presence of ursolic acid

Structure (SMILES)	pEC50 [1, 3]	pEC50 ([2]; RORγ-LBD TR-FRET)	other results
C/C(=C\c1cc2c(cc1F)O[C@@H](CCC(=O)O)CN2S(=O)(=O)c1cccc(OC(F)F)c1)c1c(F)cccc1Cl [Example 44, (S,E)-3-(6-(2-(2-Chloro-6-fluorophenyl)prop-1-en-1-yl)-4-((3-(difluoromethoxy)phenyl)sulfonyl)-7-fluoro-3,4-dihydro-2H-benzo[b][1,4]oxazin-2-yl)propanoic acid]	5.30 to 6.30	> 6.30	
C/C(=C\c1ccc2c(c1)N(S(=O)(=O)c1cccc(C(F)(F)F)c1)C[C@H](CNC(=O)N1CCC(C(=O)O)CC1)O2)c1c(F)cccc1Cl [Example 116O, (S,E)-1-(((6-(2-(2-chloro-6-fluorophenyl)prop-1-en-1-yl)-4-((3-(trifluoromethyl)phenyl)sulfonyl)-3,4-dihydro-2H-benzo[b][1,4]oxazin-2-yl)methyl)carbamoyl)piperidine-4-carboxyic acid]			pEC50 [1, 4]: > 6.30; pEC50 [2, 5]: > 6.30
CCn1cc(S(=O)(=O)N2C[C@H]([C@@H](C)NC(C)=O)Oc3ccc(/C=C(\C)c4c(F)cccc4Cl)cc32)c(Cl)n1 [Example 102, N—((R)-1-((R)-4-((3-Chloro-1-ethyl-1H-pyrazol-4-yl)sulfonyl)-6-((E)-2-(2-chloro-6-fluorophenyl)prop-1-en-1-yl)-3,4-dihydro-2H-benzo[b][1,4]oxazin-2-yl)ethyl)acetamide]	> 6.30	> 6.30	
C/C(=C\c1ccc2c(c1)N(S(=O)(=O)c1cccc(C(F)(F)F)c1)C[C@H](CCNC(=O)OC(C)(C)C)O2)c1c(F)cccc1Cl [Example 110, tert-Butyl (S,E)-(2-(6-(2-(2-chloro-6-fluorophenyl)prop-1-en-1-yl)-4-((3-(trifluoromethyl)phenyl)sulfonyl)-3,4-dihydro-2H-benzo[b][1,4]oxazin-2-yl)ethyl)carbamate]			pEC50 [1, 6]: 5.30 to 6.30; Gal4-RORγ Assay Max Response [1, 6]: ** (a value in the range of greater than 90 to 150); pEC50 ([2]; RORγ-LBD TR-FRET assay): > 6.30; TR-FRET Assay Max Response ([2]; RORγ-LBD TR-FRET assay): *** (a value in the range of greater than 150 to 200)
O=C(O)CC[C@H]1CN(S(=O)(=O)c2cccc(C(F)(F)F)c2)c2cc(CCc3c(F)cccc3Cl)ccc2O1			pEC50 [1, 4]: 5.30 to 6.30; pEC50 [2, 5]: > 6.30
O=C(O)CC[C@H]1CN(S(=O)(=O)c2cccc(C(F)(F)F)c2)c2cc(CC3CCCCC3)ccc2O1 [Example 93, (S)-3-(6-(Cyclohexylmethyl)-4-((3-(trifluoromethyl)phenyl)sulfonyl)-3,4-dihydro-2H-benzo[b][1,4]oxazin-2-yl)propanoic acid]	5.30 to 6.30	> 6.30	
C[C@H]1CN(S(=O)(=O)c2cccc(C(F)(F)F)c2)c2cc(COc3c(F)cccc3Cl)ccc2O1			pEC50 [1, 4]: 5.00 to 5.30; pEC50 [2, 5]: > 6.30
CCOC(=O)C1CCN(CCC[C@H]2CN(S(=O)(=O)c3cccc(C(F)(F)F)c3)c3cc(/C=C(\C)c4c(F)cccc4Cl)ccc3O2)CC1 [Example 119E, ethyl (S,E)-1-(3-(6-(2-(2-chloro-6-fluorophenyl)prop-1-en-1-yl)-4-((3-(trifluoromethyl)phenyl)sulfonyl)-3,4-dihydro-2H-benzo[b][1,4]oxazin-2-yl)propyl)piperidine-4-carboxylate]			pEC50 [1, 6]: 5.30 to 6.30; Gal4-RORγ Assay Max Response [1, 6]: ** (a value in the range of greater than 90 to 150); pEC50 ([2]; RORγ-LBD TR-FRET assay): > 6.30; TR-FRET Assay Max Response ([2]; RORγ-LBD TR-FRET assay): *** (a value in the range of greater than 150 to 200)
CCn1cc(S(=O)(=O)N2C[C@H]([C@@H](C)O)Oc3ccc(/C=C(\C)c4c(F)cccc4Cl)cc32)c(Cl)n1 [Example 99, (R)-1-((R)-4-((3-Chloro-1-ethyl-1H-pyrazol-4-yl)sulfonyl)-6-((E)-2-(2-chloro-6-fluorophenyl)prop-1-en-1-yl)-3,4-dihydro-2H-benzo[b][1,4]oxazin-2-yl)ethan-1-ol]	5.30 to 6.30	> 6.30	

Continued, in another order:

pEC50 [1, 3]	pEC50 ([2]; RORγ-LBD TR-FRET)	Structure (SMILES)	other results
< 5.00	> 6.30	CCOc1nn(CC)cc1S(=O)(=O)N1C[C@H](CCC(=O)O)Oc2ccc(/C=C/c3cccs3)cc21 [Example 89O, (S,E)-3-(4-((3-ethoxy-1-ethyl-1H-pyrazol-4-yl)sulfonyl)-6-(2-(thiophen-2-yl)vinyl)-3,4-dihydro-2H-benzo[b][1,4]oxazin-2-yl)propanoic acid]	
> 6.30	> 6.30	COC(=O)CC[C@H]1CN(S(=O)(=O)c2ccc(F)c(OC(F)F)c2)c2cc(/C=C(\C)c3c(F)cccc3Cl)ccc2O1 [Example 86AT, (S,E)-methyl 3-(6-(2-(2-chloro-6-fluorophenyl)prop-1-en-1-yl)-4-((3-(difluoromethoxy)-4-fluorophenyl)sulfonyl)-3,4-dihydro-2H-benzo[b][1,4]oxazin-2-yl)propanoate]	
< 5.00	5.30 to 6.30	CCOc1nn(CC)cc1S(=O)(=O)N1C[C@H](CCC(=O)O)Oc2ccc(/C=C/c3cccc(Cl)n3)cc21 [Example 89AA, (S,E)-3-(6-(2-(6-chloropyridin-2-yl)vinyl)-4-((3-ethoxy-1-ethyl-1H-pyrazol-4-yl)sulfonyl)-3,4-dihydro-2H-benzo[b][1,4]oxazin-2-yl)propanoic acid]	
5.30 to 6.30	> 6.30	N#Cc1cccnc1/C=C/c1ccc2c(c1)N(S(=O)(=O)c1cccc(C(F)(F)F)c1)C[C@H](CCC(=O)O)O2 [Example 89DL, (S,E)-3-(6-(2-(3-cyanopyridin-2-yl)vinyl)-4-((3-(trifluoromethyl)-phenyl)sulfonyl)-3,4-dihydro-2H-benzo[b][1,4]oxazin-2-yl)propanoic acid]	
< 5.00	5.30 to 6.30	Cc1cnc(/C=C/c2ccc3c(c2)N(S(=O)(=O)c2cccc(C(F)(F)F)c2)C[C@H](CCC(=O)O)O3)c(F)c1 [Example 89CF, (S,E)-3-(6-(2-(3-fluoro-5-methylpyridin-2-yl)vinyl)-4-((3-(trifluoromethyl)phenyl)sulfonyl)-3,4-dihydro-2H-benzo[b][1,4]-oxazin-2-yl)propanoic acid]	
> 6.30	> 6.30	C/C(=C\c1ccc2c(c1)N(S(=O)(=O)c1cccc(C(C)C)c1)C[C@H](CCC(=O)O)O2)c1c(F)cccc1Cl [Example 86Q, (S,E)-3-(6-(2-(2-chloro-6-fluorophenyl)prop-1-en-1-yl)-4-((3-isopropylphenyl)sulfonyl)-3,4-dihydro-2H-benzo[b][1,4]oxazin-2-yl)propanoic acid]	
5.30 to 6.30	> 6.30	COc1cccc(Cl)c1/C=C/c1ccc2c(c1)N(S(=O)(=O)c1cccc(C(F)(F)F)c1)C[C@H](CCC(=O)O)O2 [Example 89EY, (S,E)-3-(6-(2-chloro-6-methoxystyryl)-4-((3-(trifluoromethyl)phenyl)-sulfonyl)-3,4-dihydro-2H-benzo[b][1,4]oxazin-2-yl)propanoic acid]	
5.30 to 6.30	> 6.30	CCOc1ncc(Cl)cc1S(=O)(=O)N1C[C@H](CCC(=O)O)Oc2ccc(/C=C/c3c(Cl)cccc3C(F)(F)F)cc21 [Example 89CZ, (S,E)-3-(4-((5-chloro-2-ethoxypyridin-3-yl)sulfonyl)-6-(2-chloro-6-(trifluoromethyl)-styryl)-3,4-dihydro-2H-benzo-[b][1,4]oxazin-2-yl)propanoic acid]	
5.30 to 6.30	> 6.30	CCOc1nn(CC)cc1S(=O)(=O)N1C[C@H](CCC(=O)O)Oc2ccc(/C=C(\C)c3c(F)cccc3Cl)cc21 [Example 86I, (S,E)-3-(6-(2-(2-chloro-6-fluorophenyl)prop-1-en-1-yl)-4-((3-ethoxy-1-ethyl-1H-pyrazol-4-yl)sulfonyl)-3,4-dihydro-2H-benzo[b][1,4]oxazin-2-yl)propanoic acid]	
